Legend:
Assay in all cases: biochemical
Details in all cases: read-out: Upstate KSS % inhibition at 1uM
BLK = BLK (Homo sapiens, UniProt P51451)
Experimental: (§1) In these selectivity assays the concentration of ATP was set to the Km value of ATP for each kinase tested to allow for a relative potency comparison between the various kinases. The compounds were tested at 1 µM final concentration. […] (A) Kinase selectivity screen (KSS) performed at Upstate Biotechnology. […] (B) KSS performed at University of Dundee (Division of Signal Transduction Therapy). […] (PDF) Click here for additional data file.

BMX = BMX (Homo sapiens, UniProt P51813)
Sequence of BMX (P51813 whole entry): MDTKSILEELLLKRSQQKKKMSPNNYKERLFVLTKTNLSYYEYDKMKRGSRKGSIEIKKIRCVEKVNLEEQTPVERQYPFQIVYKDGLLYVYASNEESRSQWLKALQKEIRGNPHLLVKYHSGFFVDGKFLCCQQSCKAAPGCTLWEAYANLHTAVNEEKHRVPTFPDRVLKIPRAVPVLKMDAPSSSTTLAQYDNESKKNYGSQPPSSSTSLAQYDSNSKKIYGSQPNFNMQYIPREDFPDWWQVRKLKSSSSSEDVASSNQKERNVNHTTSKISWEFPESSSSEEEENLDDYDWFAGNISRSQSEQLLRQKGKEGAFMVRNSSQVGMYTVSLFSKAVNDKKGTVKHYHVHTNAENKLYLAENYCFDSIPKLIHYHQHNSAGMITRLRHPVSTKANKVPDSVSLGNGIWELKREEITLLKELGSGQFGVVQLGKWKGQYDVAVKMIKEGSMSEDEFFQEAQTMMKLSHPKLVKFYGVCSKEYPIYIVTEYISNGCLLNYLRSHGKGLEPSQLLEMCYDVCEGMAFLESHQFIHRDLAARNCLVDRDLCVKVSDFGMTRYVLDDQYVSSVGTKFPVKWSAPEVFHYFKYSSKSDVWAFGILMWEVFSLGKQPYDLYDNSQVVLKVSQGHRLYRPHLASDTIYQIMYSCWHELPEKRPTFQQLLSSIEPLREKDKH
Experimental: as §1

BTK = BTK (Homo sapiens, UniProt Q06187)
Experimental: as §1

CDK2/CyclinA = CDK2/CyclinA (Homo sapiens, UniProt P24941)
Experimental: as §1

CSK = CSK (Homo sapiens, UniProt P41240)
Experimental: as §1

CaMKIV = biological target: T1, CaMKIV (Homo sapiens, UniProt Q16566)
T1 construct: gene CAMK4
Experimental: as §1

EGFR = EGFR (Homo sapiens, UniProt P00533)
Experimental: as §1

FAK = biological target: T2, FAK (Homo sapiens, UniProt Q05397)
T2 construct: gene PTK2
Experimental: as §1

FYN = FYN (Homo sapiens, UniProt P06241)
Experimental: as §1

Fes = Fes (Homo sapiens, UniProt P07332)
Sequence of Fes (P07332 whole entry): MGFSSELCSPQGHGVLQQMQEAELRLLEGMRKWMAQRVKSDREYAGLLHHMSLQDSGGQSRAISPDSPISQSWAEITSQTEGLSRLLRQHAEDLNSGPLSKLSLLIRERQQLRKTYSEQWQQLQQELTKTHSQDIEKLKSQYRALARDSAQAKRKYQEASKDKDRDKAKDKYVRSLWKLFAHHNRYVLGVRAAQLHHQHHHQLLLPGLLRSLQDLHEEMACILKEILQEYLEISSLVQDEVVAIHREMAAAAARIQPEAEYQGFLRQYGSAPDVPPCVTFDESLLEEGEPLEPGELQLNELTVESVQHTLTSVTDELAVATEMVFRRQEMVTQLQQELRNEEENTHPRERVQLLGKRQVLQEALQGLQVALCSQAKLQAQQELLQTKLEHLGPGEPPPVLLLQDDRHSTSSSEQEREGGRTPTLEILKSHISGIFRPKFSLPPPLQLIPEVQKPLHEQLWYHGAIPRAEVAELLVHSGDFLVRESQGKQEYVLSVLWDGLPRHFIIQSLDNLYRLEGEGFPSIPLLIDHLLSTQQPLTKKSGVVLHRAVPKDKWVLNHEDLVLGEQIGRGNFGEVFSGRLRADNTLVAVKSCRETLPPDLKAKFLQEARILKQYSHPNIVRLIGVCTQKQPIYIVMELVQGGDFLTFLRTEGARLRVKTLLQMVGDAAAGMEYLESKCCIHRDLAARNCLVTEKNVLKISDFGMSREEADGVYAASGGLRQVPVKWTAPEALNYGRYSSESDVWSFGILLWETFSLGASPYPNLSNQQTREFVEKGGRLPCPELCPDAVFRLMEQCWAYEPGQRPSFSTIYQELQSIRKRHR
Experimental: as §1

GRK3 = GRK3 (Homo sapiens, UniProt P35626)
Experimental: as §1

GSK3beta = biological target: T3, GSK3beta (Homo sapiens, UniProt P49841)
T3 construct: gene GSK3B
T3 sequence (P49841 whole entry): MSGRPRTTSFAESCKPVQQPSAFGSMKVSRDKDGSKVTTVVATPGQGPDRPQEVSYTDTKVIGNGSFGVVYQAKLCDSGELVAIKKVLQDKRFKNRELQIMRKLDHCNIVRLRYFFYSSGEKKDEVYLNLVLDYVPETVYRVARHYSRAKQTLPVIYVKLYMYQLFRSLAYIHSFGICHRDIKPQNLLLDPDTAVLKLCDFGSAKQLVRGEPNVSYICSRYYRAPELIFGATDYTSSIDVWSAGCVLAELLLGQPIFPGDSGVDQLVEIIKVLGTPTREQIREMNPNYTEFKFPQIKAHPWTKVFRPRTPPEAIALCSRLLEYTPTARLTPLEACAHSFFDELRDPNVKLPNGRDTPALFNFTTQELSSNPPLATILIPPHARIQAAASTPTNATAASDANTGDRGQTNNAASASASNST
Experimental: as §1

HIPK2 = HIPK2 (Homo sapiens, UniProt Q9H2X6)
Experimental: as §1

JAK2 = JAK2 (Homo sapiens, UniProt O60674)
Experimental: as §1

JNK1alpha1 = biological target: T4, JNK1alpha1 (Homo sapiens, UniProt P45983)
T4 construct: gene MAPK8; isoform alpha1
Experimental: as §1

KDR = KDR (Homo sapiens, UniProt P35968)
Experimental: as §1

LIMK1 = LIMK1 (Homo sapiens, UniProt P53667)
Experimental: as §1

MELK = MELK (Homo sapiens, UniProt Q14680)
Experimental: as §1

MKK6 = biological target: T5, MKK6 (Homo sapiens, UniProt P52564)
T5 construct: gene MAP2K6
Experimental: as §1

NEK6 = NEK6 (Homo sapiens, UniProt Q9HC98)
Experimental: as §1

PAR-1Balpha = biological target: T6, PAR-1Balpha (Homo sapiens, UniProt Q7KZI7)
T6 construct: gene MARK2
T6 sequence (Q7KZI7 whole entry): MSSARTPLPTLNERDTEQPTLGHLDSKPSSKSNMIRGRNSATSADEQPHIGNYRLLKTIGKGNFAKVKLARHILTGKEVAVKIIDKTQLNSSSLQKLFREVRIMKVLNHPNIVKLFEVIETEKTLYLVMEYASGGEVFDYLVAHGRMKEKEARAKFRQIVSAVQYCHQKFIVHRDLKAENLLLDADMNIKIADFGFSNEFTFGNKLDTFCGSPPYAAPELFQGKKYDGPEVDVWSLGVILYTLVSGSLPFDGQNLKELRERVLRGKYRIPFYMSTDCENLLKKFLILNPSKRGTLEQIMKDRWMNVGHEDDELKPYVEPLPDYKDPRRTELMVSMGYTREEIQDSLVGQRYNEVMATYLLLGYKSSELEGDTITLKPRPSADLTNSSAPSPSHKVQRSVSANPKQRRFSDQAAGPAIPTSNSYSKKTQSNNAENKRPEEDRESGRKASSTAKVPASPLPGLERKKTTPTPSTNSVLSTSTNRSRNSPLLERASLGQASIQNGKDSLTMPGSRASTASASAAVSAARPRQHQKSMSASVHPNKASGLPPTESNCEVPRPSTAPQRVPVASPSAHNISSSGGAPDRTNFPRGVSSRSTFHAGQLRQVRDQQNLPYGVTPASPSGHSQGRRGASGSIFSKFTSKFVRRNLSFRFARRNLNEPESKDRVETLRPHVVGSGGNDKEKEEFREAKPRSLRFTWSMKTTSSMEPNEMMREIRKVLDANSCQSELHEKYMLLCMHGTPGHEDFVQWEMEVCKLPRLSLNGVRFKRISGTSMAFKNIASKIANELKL
Experimental: as §1

PDGFRalpha = biological target: T7, PDGFRalpha (Homo sapiens, UniProt P16234)
T7 construct: gene PDGFRA
T7 sequence (P16234 whole entry): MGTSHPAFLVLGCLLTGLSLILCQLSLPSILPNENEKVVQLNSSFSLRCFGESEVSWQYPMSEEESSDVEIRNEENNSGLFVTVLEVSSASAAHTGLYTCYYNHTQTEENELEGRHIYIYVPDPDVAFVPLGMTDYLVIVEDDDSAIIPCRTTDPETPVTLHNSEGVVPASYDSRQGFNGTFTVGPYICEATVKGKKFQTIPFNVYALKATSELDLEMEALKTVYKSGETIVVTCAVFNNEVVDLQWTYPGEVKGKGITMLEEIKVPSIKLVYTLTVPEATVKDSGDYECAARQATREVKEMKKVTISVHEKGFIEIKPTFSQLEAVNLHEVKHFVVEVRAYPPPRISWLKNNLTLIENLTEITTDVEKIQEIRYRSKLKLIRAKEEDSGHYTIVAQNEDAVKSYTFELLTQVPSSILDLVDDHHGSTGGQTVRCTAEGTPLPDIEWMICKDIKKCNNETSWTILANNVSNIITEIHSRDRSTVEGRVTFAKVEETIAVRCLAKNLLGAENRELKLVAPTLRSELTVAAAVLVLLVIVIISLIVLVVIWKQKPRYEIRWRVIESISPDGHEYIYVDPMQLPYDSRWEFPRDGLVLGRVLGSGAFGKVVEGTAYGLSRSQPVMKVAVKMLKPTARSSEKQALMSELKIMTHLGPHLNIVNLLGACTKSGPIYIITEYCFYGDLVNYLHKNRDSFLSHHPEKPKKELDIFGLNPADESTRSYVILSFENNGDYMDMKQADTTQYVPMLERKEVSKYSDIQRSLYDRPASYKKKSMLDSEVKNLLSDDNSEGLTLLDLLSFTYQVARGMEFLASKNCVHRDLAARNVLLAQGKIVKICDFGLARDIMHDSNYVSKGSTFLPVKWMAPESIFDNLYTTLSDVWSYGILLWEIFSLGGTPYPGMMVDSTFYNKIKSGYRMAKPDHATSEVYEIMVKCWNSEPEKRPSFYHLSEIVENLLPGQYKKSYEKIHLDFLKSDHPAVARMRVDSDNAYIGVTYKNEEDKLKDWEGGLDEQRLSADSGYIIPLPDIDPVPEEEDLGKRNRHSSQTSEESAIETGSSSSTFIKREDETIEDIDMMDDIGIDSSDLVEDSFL
Experimental: as §1

PDGFRbeta = biological target: T8, PDGFRbeta (Homo sapiens, UniProt P09619)
T8 construct: gene PDGFRB
Experimental: as §1

PI3Kg = biological target: T9, PI3Kg (Homo sapiens, UniProt P48736)
T9 construct: gene PIK3CG
Experimental: as §1

PKCdelta = biological target: T10, PKCdelta (Homo sapiens, UniProt Q05655)
T10 construct: gene PRKCD
Experimental: as §1

PKCgamma = biological target: T11, PKCgamma (Homo sapiens, UniProt P05129)
T11 construct: gene PRKCG
Experimental: as §1

PhKgamma = biological target: T12, PhKgamma (Homo sapiens, UniProt Q16816)
T12 construct: gene PHKG1
Experimental: as §1

Pyk2 = biological target: T13, Pyk2 (Homo sapiens, UniProt Q14289)
T13 construct: gene PTK2B
Experimental: as §1

RIPK2 = RIPK2 (Homo sapiens, UniProt O43353)
Sequence of RIPK2 (O43353 whole entry): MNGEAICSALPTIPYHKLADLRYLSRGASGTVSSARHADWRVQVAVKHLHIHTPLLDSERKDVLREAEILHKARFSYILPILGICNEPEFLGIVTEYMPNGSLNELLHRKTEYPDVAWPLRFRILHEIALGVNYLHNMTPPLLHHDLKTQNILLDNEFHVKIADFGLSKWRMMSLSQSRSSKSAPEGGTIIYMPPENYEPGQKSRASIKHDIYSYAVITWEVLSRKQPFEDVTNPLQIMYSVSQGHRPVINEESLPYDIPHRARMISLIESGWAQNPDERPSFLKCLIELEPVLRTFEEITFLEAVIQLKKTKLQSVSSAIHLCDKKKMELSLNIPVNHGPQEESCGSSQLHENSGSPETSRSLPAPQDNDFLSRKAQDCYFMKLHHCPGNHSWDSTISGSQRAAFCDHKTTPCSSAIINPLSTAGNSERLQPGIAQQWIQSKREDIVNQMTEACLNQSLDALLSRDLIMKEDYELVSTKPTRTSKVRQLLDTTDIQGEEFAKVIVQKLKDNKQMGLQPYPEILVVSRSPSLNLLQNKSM
Experimental: as §1

RSK2 = biological target: T14, RSK2 (Homo sapiens, UniProt P51812)
T14 construct: gene RPS6KA3
Experimental: as §1

Rse = biological target: T15, Rse (Homo sapiens, UniProt Q06418)
T15 construct: gene TYRO3
Experimental: as §1

TSSK2 = TSSK2 (Homo sapiens, UniProt Q96PF2)
Experimental: as §1

WNK2 = WNK2 (Homo sapiens, UniProt Q9Y3S1)
Experimental: as §1

Yes = biological target: T16, Yes (Homo sapiens, UniProt P07947)
T16 construct: gene YES1
Experimental: as §1

Question: Which inhibition at 1 µM (BLK) does the source give for `OCCn1cc(-c2cnc3nnn(Cc4ccc5ncccc5c4)c3n2)cn1` [METi, PF-04217903] here?
Answer: The inhibition at 1 µM was 5%.

Question: What about the inhibition at 1 µM (BMX) of the same compound?
Answer: The inhibition at 1 µM was -10%.

Question: And the inhibition at 1 µM (BTK)?
Answer: Its inhibition at 1 µM is -13%.

Question: What about the inhibition at 1 µM (CDK2/CyclinA) of the same compound?
Answer: The inhibition at 1 µM was 0%.

Question: And the inhibition at 1 µM (CSK)?
Answer: Its inhibition at 1 µM is -23%.

Question: And the inhibition at 1 µM (CaMKIV)?
Answer: The inhibition at 1 µM was -4%.

Question: And the inhibition at 1 µM (EGFR)?
Answer: Its inhibition at 1 µM is 0%.

Question: And the inhibition at 1 µM (FAK)?
Answer: Its inhibition at 1 µM is -9%.

Question: And the inhibition at 1 µM (FYN)?
Answer: The inhibition at 1 µM was -20%.

Question: What about the inhibition at 1 µM (Fes) of the same compound?
Answer: The inhibition at 1 µM was -61%.

Question: And the inhibition at 1 µM (GRK3)?
Answer: Its inhibition at 1 µM is -1%.

Question: What about the inhibition at 1 µM (GSK3beta) of the same compound?
Answer: Its inhibition at 1 µM is -1%.

Question: And the inhibition at 1 µM (HIPK2)?
Answer: Its inhibition at 1 µM is 8%.

Question: What about the inhibition at 1 µM (JAK2) of the same compound?
Answer: The inhibition at 1 µM was -6%.

Question: And the inhibition at 1 µM (JNK1alpha1)?
Answer: The inhibition at 1 µM was 0%.

Question: What about the inhibition at 1 µM (KDR) of the same compound?
Answer: Its inhibition at 1 µM is -9%.

Question: What about the inhibition at 1 µM (LIMK1) of the same compound?
Answer: Its inhibition at 1 µM is -7%.

Question: What about the inhibition at 1 µM (MELK) of the same compound?
Answer: The inhibition at 1 µM was 2%.

Question: And the inhibition at 1 µM (MKK6)?
Answer: Its inhibition at 1 µM is -13%.

Question: And the inhibition at 1 µM (NEK6)?
Answer: Its inhibition at 1 µM is -14%.

Question: What about the inhibition at 1 µM (PAR-1Balpha) of the same compound?
Answer: Its inhibition at 1 µM is 17%.

Question: And the inhibition at 1 µM (PDGFRalpha)?
Answer: The inhibition at 1 µM was -28%.

Question: What about the inhibition at 1 µM (PDGFRbeta) of the same compound?
Answer: The inhibition at 1 µM was -27%.

Question: What about the inhibition at 1 µM (PI3Kg) of the same compound?
Answer: The inhibition at 1 µM was 1%.

Question: And the inhibition at 1 µM (PKCdelta)?
Answer: Its inhibition at 1 µM is 10%.

Question: What about the inhibition at 1 µM (PKCgamma) of the same compound?
Answer: Its inhibition at 1 µM is 5%.

Question: What about the inhibition at 1 µM (PhKgamma) of the same compound?
Answer: The inhibition at 1 µM was -3%.

Question: And the inhibition at 1 µM (Pyk2)?
Answer: The inhibition at 1 µM was -17%.

Question: What about the inhibition at 1 µM (RIPK2) of the same compound?
Answer: Its inhibition at 1 µM is 3%.

Question: What about the inhibition at 1 µM (RSK2) of the same compound?
Answer: Its inhibition at 1 µM is -22%.

Question: And the inhibition at 1 µM (Rse)?
Answer: Its inhibition at 1 µM is 4%.

Question: And the inhibition at 1 µM (TSSK2)?
Answer: The inhibition at 1 µM was 4%.

Question: What about the inhibition at 1 µM (WNK2) of the same compound?
Answer: Its inhibition at 1 µM is -16%.

Question: And the inhibition at 1 µM (Yes)?
Answer: The inhibition at 1 µM was 16%.

From paper PMC3382171 (PLoS ONE, 2012)
